Assay results reported in patent US8748497B2, “Optimized fluorocarbon emulsions for blood substitutes and other therapeutic uses” (Alliance Pharmaceutical Corp., priority 2006, dated 2014).

Assay: intravascular persistence of PFOB and PFDB after 60/30% w/v PFOB/PFDB emulsion
Format: in vivo
Details: rats
Text: FIG. 4 represents typical data for the removal of both PFOB and PFDB. […] In general, the rate constant for PFDB removal is 20-30% less than that of PFOB.
The emulsion composition with the data shown in FIG. 4 contains a 60/30% (w/v) ratio of PFOB/PFDB stabilized by 6% w/v EYP. In this case, the rate constant for PFDB removal is 20% higher than that of PFOB. It might be assumed that in the first few hours after administration that the removal from blood is controlled by k12 (see FIG. 1). The fluorochemical composition of circulating emulsion droplets should, therefore, remain intact. How is it then that the two disperse phase components could have different rate constants? To answer this question, the composition of the intravenously administered droplets can be examined through the use of sedimentation field-flow fractionation (SdFFF) coupled with gas chromatography, thereby confirming the nature of the droplets.

FC(F)(F)C(F)(F)C(F)(F)C(F)(F)C(F)(F)C(F)(F)C(F)(F)C(F)(F)C(F)(F)C(F)(F)Br [PFDB, perfluorodecyl bromide]
rate constant for removal, less than that of PFOB (in general): 20-30% | rate constant for removal, higher than that of PFOB (in this case (FIG. 4), 60/30% w/v PFOB/PFDB, 6% w/v EYP): 20%
